ChEMBL document CHEMBL1139379, “Design, structure-activity relationships and in vivo characterization of 4-amino-3-benzimidazol-2-ylhydroquinolin-2-ones: a novel class of receptor tyrosine kinase inhibitors” (J Med Chem, 2009)

Experiments:
[1] = molecular target: Fibroblast growth factor receptor 1 (Homo sapiens, UniProt P11362); assay: Inhibition of human recombinant FGFR1
[2] = molecular target: Platelet-derived growth factor receptor beta (Homo sapiens, UniProt P09619); assay: Inhibition of human recombinant PDGFRbeta
Chain of Platelet-derived growth factor receptor beta (P09619 whole entry): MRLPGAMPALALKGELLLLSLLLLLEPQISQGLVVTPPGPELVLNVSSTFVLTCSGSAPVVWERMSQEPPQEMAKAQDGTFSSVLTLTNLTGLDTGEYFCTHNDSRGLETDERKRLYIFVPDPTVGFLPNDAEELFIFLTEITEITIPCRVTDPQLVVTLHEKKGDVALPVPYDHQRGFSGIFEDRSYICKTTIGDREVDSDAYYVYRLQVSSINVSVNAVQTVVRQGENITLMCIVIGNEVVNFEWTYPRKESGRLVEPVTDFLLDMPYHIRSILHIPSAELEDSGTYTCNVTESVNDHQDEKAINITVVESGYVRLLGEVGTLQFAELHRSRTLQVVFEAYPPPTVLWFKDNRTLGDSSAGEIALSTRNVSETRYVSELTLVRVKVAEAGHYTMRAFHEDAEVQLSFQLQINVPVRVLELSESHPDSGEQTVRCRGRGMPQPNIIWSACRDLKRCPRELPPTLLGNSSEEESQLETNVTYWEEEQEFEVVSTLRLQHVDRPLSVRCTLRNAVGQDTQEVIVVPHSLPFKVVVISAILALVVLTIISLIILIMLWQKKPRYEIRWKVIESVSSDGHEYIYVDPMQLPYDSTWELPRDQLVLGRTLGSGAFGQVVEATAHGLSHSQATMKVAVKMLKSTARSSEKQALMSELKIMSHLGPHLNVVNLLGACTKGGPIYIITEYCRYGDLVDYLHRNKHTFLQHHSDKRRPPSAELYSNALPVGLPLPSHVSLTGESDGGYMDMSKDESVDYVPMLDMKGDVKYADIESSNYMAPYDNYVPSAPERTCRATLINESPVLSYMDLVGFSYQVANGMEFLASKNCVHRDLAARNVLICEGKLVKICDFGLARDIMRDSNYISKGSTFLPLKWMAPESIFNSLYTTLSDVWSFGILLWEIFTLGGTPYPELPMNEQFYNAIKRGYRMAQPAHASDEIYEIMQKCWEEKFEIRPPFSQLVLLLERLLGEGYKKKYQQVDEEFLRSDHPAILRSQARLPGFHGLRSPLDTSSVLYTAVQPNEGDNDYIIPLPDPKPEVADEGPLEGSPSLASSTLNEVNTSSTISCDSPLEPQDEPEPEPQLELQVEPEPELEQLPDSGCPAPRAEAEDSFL

[3] = Inhibition of VEGF-mediated proliferation of HMVEC after 72 hrs; type: functional, cell-based; conditions: Homo sapiens
[4] = molecular target: Vascular endothelial growth factor receptor 2 (Homo sapiens, UniProt P35968)
Chain of Vascular endothelial growth factor receptor 2 (P35968 whole entry): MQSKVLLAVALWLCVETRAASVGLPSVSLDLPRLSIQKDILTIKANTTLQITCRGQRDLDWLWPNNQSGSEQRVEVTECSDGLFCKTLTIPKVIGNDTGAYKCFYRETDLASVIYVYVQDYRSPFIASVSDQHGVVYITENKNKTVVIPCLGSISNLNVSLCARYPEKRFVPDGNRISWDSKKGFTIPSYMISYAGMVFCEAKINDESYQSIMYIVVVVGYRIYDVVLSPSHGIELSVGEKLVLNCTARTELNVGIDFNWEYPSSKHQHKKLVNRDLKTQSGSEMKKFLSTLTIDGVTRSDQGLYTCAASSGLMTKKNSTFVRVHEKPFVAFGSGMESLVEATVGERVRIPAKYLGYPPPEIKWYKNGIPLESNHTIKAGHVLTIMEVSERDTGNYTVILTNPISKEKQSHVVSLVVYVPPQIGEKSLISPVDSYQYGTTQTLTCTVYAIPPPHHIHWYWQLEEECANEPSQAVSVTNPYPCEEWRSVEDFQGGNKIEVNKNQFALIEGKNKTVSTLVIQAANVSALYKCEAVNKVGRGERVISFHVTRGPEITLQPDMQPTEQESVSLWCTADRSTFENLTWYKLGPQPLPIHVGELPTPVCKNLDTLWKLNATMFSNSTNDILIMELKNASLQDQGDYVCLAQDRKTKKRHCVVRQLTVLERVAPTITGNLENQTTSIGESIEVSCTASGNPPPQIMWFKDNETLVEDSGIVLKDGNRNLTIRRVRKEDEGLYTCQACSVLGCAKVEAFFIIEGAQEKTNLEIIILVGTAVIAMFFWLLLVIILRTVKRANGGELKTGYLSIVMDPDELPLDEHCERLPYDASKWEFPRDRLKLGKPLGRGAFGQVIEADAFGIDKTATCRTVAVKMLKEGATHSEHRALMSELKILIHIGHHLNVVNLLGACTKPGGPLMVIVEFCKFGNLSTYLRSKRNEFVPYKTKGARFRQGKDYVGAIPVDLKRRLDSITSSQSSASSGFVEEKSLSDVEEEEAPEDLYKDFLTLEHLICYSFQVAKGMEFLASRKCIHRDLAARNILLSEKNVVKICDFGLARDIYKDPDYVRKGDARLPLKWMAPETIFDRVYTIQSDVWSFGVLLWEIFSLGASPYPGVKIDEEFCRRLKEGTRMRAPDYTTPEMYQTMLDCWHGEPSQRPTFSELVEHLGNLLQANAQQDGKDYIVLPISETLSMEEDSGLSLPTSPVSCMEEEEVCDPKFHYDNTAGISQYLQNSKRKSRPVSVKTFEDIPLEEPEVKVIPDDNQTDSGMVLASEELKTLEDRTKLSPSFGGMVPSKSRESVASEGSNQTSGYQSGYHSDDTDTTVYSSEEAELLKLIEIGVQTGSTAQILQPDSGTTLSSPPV

Chain of Fibroblast growth factor receptor 1 (P11362 whole entry): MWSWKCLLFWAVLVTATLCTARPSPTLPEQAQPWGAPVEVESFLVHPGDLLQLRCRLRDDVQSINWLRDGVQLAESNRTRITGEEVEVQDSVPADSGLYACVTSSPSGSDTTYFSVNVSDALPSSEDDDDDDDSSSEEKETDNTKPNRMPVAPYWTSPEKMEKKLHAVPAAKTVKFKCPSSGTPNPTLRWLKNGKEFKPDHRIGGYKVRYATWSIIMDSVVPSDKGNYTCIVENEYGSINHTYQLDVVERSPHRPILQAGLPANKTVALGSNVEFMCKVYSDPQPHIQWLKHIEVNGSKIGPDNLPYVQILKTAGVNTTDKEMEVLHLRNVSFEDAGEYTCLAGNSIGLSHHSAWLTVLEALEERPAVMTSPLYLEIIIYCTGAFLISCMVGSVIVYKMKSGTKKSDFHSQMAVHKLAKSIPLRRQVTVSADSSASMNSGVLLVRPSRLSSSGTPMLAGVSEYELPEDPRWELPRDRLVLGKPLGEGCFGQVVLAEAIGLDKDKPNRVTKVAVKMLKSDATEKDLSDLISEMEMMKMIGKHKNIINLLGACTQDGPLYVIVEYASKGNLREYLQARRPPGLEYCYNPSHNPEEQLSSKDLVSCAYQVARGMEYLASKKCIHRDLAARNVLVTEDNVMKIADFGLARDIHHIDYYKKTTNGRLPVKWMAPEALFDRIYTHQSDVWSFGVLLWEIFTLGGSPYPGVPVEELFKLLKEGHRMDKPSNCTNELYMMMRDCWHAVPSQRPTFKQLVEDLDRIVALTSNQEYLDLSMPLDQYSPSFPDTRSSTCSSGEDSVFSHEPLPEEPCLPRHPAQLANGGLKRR

| IC50 [1] | IC50 [2] | IC50 [4] | Structure (SMILES) | EC50 [3] |
| --- | --- | --- | --- | --- |
| 390 nM | 70 nM | 1700 nM | O=c1[nH]c2ccccc2cc1-c1nc2ccccc2[nH]1 | 240 nM |
| 30 nM | 5 nM | 57 nM | Nc1c(-c2nc3cc(N4CCOCC4)ccc3[nH]2)c(=O)[nH]c2ccccc12 | 51 nM |
| 9 nM | 2 nM | 42 nM | CN1CCN(c2ccc3[nH]c(-c4c(N)c5ccccc5[nH]c4=O)nc3c2)CC1 | 19 nM |
| 90 nM | 20 nM | 240 nM | O=c1[nH]c2ccccc2c(O)c1-c1nc2ccccc2[nH]1 | 420 nM |
| 30 nM | 10 nM | 58 nM | Nc1c(-c2nc3ccccc3[nH]2)c(=O)[nH]c2ccccc12 | 78 nM |
| 4100 nM | 130 nM | 6500 nM | CN1CCN(c2ccc3[nH]c(=O)c(-c4nc5ccccc5[nH]4)c(N)c3c2)CC1 |  |
| 390 nM | 70 nM | 860 nM | CN(C)c1c(-c2nc3ccccc3[nH]2)c(=O)[nH]c2ccccc12 | > 10000 nM |
| 7900 nM | 1100 nM | > 25000 nM | Cn1c(-c2c(O)c3ccccc3[nH]c2=O)nc2ccccc21 | > 10000 nM |
| > 25000 nM | > 25000 nM | > 25000 nM | Cn1c(-c2c(O)c3ccccc3n(C)c2=O)nc2ccccc21 | > 10000 nM |

The remaining lines, values behind:

| Structure (SMILES) | IC50 [1] | IC50 [2] | IC50 [4] | EC50 [3] |
| --- | --- | --- | --- | --- |
| CNc1ccc2c(N)c(-c3nc4ccc(N5CCN(C)CC5)cc4[nH]3)c(=O)[nH]c2c1 | 370 nM | 9 nM | 1000 nM | 270 nM |
| CN1CCN(c2ccc3[nH]c(-c4c(N)c5cc(N(C)C)ccc5[nH]c4=O)nc3c2)CC1 | 83 nM | 7 nM | 160 nM | 2000 nM |
| CN1CCN(c2ccc3[nH]c(-c4c(N)c5cc(NC(=O)c6ccccc6)ccc5[nH]c4=O)nc3c2)CC1 | 900 nM | 39 nM | 980 nM |  |
| CN1CCN(c2ccc3nc(-c4c(N)c5cc(NCc6ccccc6)ccc5[nH]c4=O)[nH]c3c2)CC1 | 8 nM | 0.6 nM | 21 nM | 1100 nM |
| CN1CCCC(Oc2cccc3[nH]c(=O)c(-c4nc5ccccc5[nH]4)c(N)c23)C1 (stereo unspecified) | 1 nM | 0.1 nM | 5 nM | 10 nM |
| CN1CCN(c2ccc3[nH]c(-c4c(N)c5c(Cl)cccc5[nH]c4=O)nc3c2)CC1 | 2 nM | 0.3 nM | 14 nM | 12 nM |
| Cc1cccc2[nH]c(=O)c(-c3nc4ccc(N5CCN(C)CC5)cc4[nH]3)c(N)c12 | 3 nM | 0.7 nM | 12 nM | 5 nM |
| CN1CCN(Cc2ccc3[nH]c(-c4c(N)c5ccccc5[nH]c4=O)nc3c2)CC1 | 9 nM | 2 nM |  |  |
| CN(C)CC(=O)N(C)c1ccc2[nH]c(-c3c(N)c4ccccc4[nH]c3=O)nc2c1 | 3 nM | 1 nM | 29 nM | 24 nM |
| CCC1CCN(C)C(Nc2c(-c3nc4ccccc4[nH]3)c(=O)[nH]c3ccccc23)C1 (stereo unspecified) | 190 nM | 0.2 nM | 170 nM | 72 nM |
| CN(C)[C@H]1CCN(c2ccc3[nH]c(-c4c(N)c5ccccc5[nH]c4=O)nc3c2)C1 | 20 nM | 4 nM | 60 nM | 42 nM |
